Measurements: patent US7498319B2, “Phosphinic acid derivatives” (Novartis AG, priority 2003, dated 2009)
Counter-ions that a name gives are not always drawn.

What was measured:
[1] = test system: "epilepsy-like" discharges of pyramidal cells; assay: penicillin-induced "epileptic" hippocampus section preparation (electrophysiology); conditions: in vitro; concentration of 6 μM

With `COc1cc(CNC[C@H](O)CP(=O)(O)Cc2ccccc2)ccn1` [Example 4, {3-[(2-methoxy-4-pyridylmethyl)-amino]-2-(S)-hydroxy-propyl}-(benzyl)phosphinic acid] as the compound, how does the melting point read?
The melting point was 192 to 195 °C.

With `O=c1cc(CNC[C@H](O)CP(=O)(O)Cc2ccccc2)cc[nH]1` (as salt: hydrochloride) [Example 10, {2-(S)-hydroxy-3-[(2-oxo-1,2-dihydro-pyridin-4-ylmethyl)-amino]-propyl}-(benzyl)-phosphinic acid] as the compound, how does the melting point read?
The melting point was 226 to 228 °C.

With `COc1cc(CNC[C@H](O)CP(=O)(O)CC2CCCCC2)ccn1` (as salt: hydrochloride) [Example 2, {3-[(2-methoxy-4-pyridylmethyl)-amino]-2-(S)-hydroxy-propyl}-(cyclohexylmethyl)-phosphinic acid] as the compound, how does the melting point read?
The melting point was 159 to 160 °C.

With `NCC(CC(=O)O)c1ccc(Cl)cc1` (stereo not shown) [baclofen] as the compound, how does the “effect on "epilepsy-like" discharges of pyramidal cells” value [1] read?
The value was “inhibits”.
